The results in this text go back to ChEMBL document CHEMBL1128115, “Synthesis and pharmacological activity of combretastatin analogues. Naphthylcombretastatins and related compounds” (Bioorg Med Chem Lett, 1995).

Format in all cases: functional, cell-based
In one test the test system is P388. The experiment in a line: Compound was tested for inhibition of cell growth of P-388 cells. The settings on record: Mus musculus.
Another test relates to HT-29. The experiment in a line: Compound was tested for inhibition of cell growth of HT-29 cells. The settings on record: Homo sapiens.
Test [1] in a line: Compound was tested for inhibition of cell growth of MEL-28 cells. The settings on record: Homo sapiens, SK-MEL-28.
The test system of another test is A549. The experiment in a line: Compound was tested for inhibition of cell growth of A-549 cells. The settings on record: Homo sapiens.
The next test deals with L1210. The experiment in a line: Compound was tested for inhibition of cell growth of L1210 leukemia cells. The following applies: Mus musculus.

Structures are written as SMILES. Where only a bound is given, the exact number is not on record here.

With `COc1ccc(C(=O)Cc2cc(OC)c(OC)c(OC)c2)cc1OC`, the IC50 (in the test with P388; in the test on HT-29; in test [1]; with A549) was more than 28.9 µM each time.

Take `COc1cc(CCc2ccc3ccccc3c2)cc(OC)c1OC`: the IC50 (with P388; with HT-29; in test [1]; in the test on A549) was 0.3 µM throughout.

For `COc1ccc(CCc2cc(OC)c(OC)c(OC)c2)cc1OC`, the IC50 (in the test on P388; in the test on HT-29; in test [1]; in the test with A549) was 15 µM each time.

Turning to `COc1ccc(C(O)Cc2cc(OC)c(OC)c(OC)c2)cc1OC` (centres undefined), the half-inhibitory concentration (IC50) in the test on P388 was 28.7 µM; in the test on HT-29, more than 28.7 µM; in test [1], more than 28.7 µM; with A549, more than 28.7 µM.

For `COc1cc(C(=O)Cc2cc(OC)c(OC)c(OC)c2)ccc1O`, the IC50 with P388 is 30 µM; in the test on HT-29, more than 30 µM; in test [1] it was more than 30 µM; in the test on A549, more than 30 µM.

For `COc1ccc(C2(Cc3cc(OC)c(OC)c(OC)c3)SCCCS2)cc1OC`, the IC50 in the test on P388 was 22.9 µM; with HT-29 it was 22.9 µM; in test [1], more than 22.9 µM; in the test on A549, 22.9 µM.

Consider `c1ccc2cc(C3SCCCS3)ccc2c1`, for which, in the test with L1210, inhibition was half-maximal at 20 µM (IC50).

With `Oc1ccc(CCc2ccc3c(c2)OCO3)cc1`, the IC50 was 41.2 µM in the test on P388, more than 41.2 µM in the test on HT-29, more than 41.2 µM in test [1] and more than 41.2 µM in the test on A549.

In the case of `COc1cc(CC2(c3ccc4c(c3)OCO4)SCCCS2)cc(OC)c1OC`, the IC50 in the test with P388 was found to be 5.9 µM; in the test with HT-29, 5.9 µM; in test [1], 4.7 µM; in the test on A549 it was 5.9 µM.

Regarding `COc1cc([C@@H]2c3cc4c(cc3[C@H](O)[C@H]3COC(=O)[C@H]23)OCO4)cc(OC)c1OC` [PODOFILOX], the IC50 worked out at 0.05 µM in the test with P388, 0.05 µM with HT-29, 0.06 µM in test [1] and 0.05 µM in the test on A549.

As for `COc1cc(CC2(c3ccc4ccccc4c3)SCCCS2)cc(OC)c1OC`, the IC50 with P388 amounted to 5.8 µM; with HT-29 it was 5.8 µM; in test [1], 11.7 µM; with A549, 5.8 µM.

As to `COc1cc(CC(=O)c2ccc3ccccc3c2)cc(OC)c1OC`, the IC50 in the test on P388 turned out to be 14.8 µM; in the test on HT-29, 29.7 µM; in test [1] it was 14.8 µM; in the test with A549, 14.8 µM.

In the case of `COc1cc(CCc2ccc3c(c2)OCO3)cc(OC)c1OC`, the IC50 (with P388; in the test with HT-29; in test [1]; in the test on A549) was 6.3 µM each time.
